Values after ≈ are worked out from the molar mass of the structure shown.
Legend:
[1] = system: lymphocytic leukemia P388 tumor; experiment: Anti-tumor activity against lymphocytic leukemia P388 tumor; format: in vivo, CDF1 mice; conditions: mean survival days vs PBS control
Method: Five male CDF1 mice each having a weight of about 22 g were used for each group as test animals, and 1×10^6 cells of lymphocytic leukemia P388 tumor cells were intraperitoneally implanted into the animals. Phosphate solution saline (PBS) containing UCT-1003 (0.2 ml) was once administered intraperitoneally 24 hours after the implantation of tumor cells. The composition of PBS was 0.8 g/dl NaCl, 0.02 g/dl KCl, […] Na2 HPO4 and 0.02 g/dl KH2 PO4 (pH 7.2). For comparison, 0.2 ml of PBS containing mitomycin C was intraperitoneally administered 24 hours after the implantation of tumor cells. Increased life span determined from mean survival days after the implantation is shown in Table 3 as T/C (T: mean survival days of the test groups, C: mean survival days of the control group which received 0.2 ml of PBS intraperitoneally).

[2] = system: Staphylococcus aureus ATCC 6538P; experiment: Antibacterial activity (MIC), agar dilution method, Staphylococcus aureus; format: cell-based; conditions: ATCC6538P, pH 7, read-out: minimum inhibitory concentration (MIC)
Method: (§1) The antibacterial activity was determined by the agar dilution method using a medium (pH 7) which comprises 3 g/l Bacto-Tryptone (Difco Laboratories), 3 g/l meat extract, 1 g/l yeast extract, 1 g/l glucose and 16 g/l agar.

[3] = system: Enterococcus faecium ATCC 10541; experiment: Antibacterial activity (MIC), agar dilution method, Enterococcus faecium; format: cell-based; conditions: ATCC10541, pH 7, read-out: minimum inhibitory concentration (MIC)
Method: as §1

[4] = system: Bacillus subtilis No. 10707; experiment: Antibacterial activity (MIC), agar dilution method, Bacillus subtilis; format: cell-based; conditions: pH 7, read-out: minimum inhibitory concentration (MIC)
Method: as §1

[5] = system: Klebsiella pneumoniae ATCC 10031; experiment: Antibacterial activity (MIC), agar dilution method, Klebsiella pneumoniae; format: cell-based; conditions: ATCC10031, pH 7, read-out: minimum inhibitory concentration (MIC)
Method: as §1

Escherichia coli ATCC 26 = experiment: Antibacterial activity (MIC), agar dilution method, Escherichia coli; format: cell-based; conditions: ATCC26, pH 7, read-out: minimum inhibitory concentration (MIC)
Method: as §1

[6] = system: Shigella sonnei ATCC 9290; experiment: Antibacterial activity (MIC), agar dilution method, Shigella sonnei; format: cell-based; conditions: ATCC9290, pH 7, read-out: minimum inhibitory concentration (MIC)
Method: as §1

[7] = system: Salmonella typhi ATCC 9992; experiment: Antibacterial activity (MIC), agar dilution method, Salmonella typhi; format: cell-based; conditions: Salmonella enterica, pH 7, read-out: minimum inhibitory concentration (MIC)
Method: as §1

T24 cells = experiment: Anti-tumor activity against T24 cells (growth inhibition, Neutral Red); format: cell-based; conditions: Homo sapiens, T-24, 72 hours, 37° C.
Method: T24 cells were suspended in a medium comprising F10 medium (Gibco Co., Ltd.), 0.1 g/ml fetal calf serum, 100 units/ml penicillin and 100 ug/ml streptomycin (hereinafter referred to as medium A) to a concentration of 2×10^4 cells/ml. The cell suspension thus prepared was put into wells of a 96-well microtiter plate in the amount of 0.1 ml per well. After incubation at 37° C. for 20 hours in a CO2 -incubator, 0.05 ml of a test sample appropriately diluted with medium A was added to each well. The cells were further cultured at 37° C. for 72 hours in the CO2 -incubator and the culture supernatant was removed. To the residue was added a medium comprising medium A and 0.02% Neutral Red in the amount of 0.1 ml per well, followed by culturing at 37° C. for one hour in the CO2 -incubator, whereby the cells were stained. After removal of the culture supernatant, the residue was washed once with physiological saline.
The pigment was extracted with 0.001N hydrochloric acid/30% ethanol and absorbance at 550 nm was measured by using a microplate reader. The concentration of the test compound at which the growth of the cells is inhibited by 50% (IC50) was calculated by comparing the absorbance of untreated cells with those of the cells treated with the test compound at known concentrations.

HeLaS3 cells = experiment: Anti-tumor activity against HeLaS3 cells (growth inhibition, Neutral Red); format: cell-based; conditions: Homo sapiens, HeLa S3, 72 hours
Solubility in solvents = format: physicochemical

Row | Compound | Increased life span (T/C) ([1]; 4 mg/kg, i.p. 24 hours after i.p. implantation) | MIC [2] | MIC [3] | MIC [4] | MIC [5] | MIC (Escherichia coli ATCC 26) | MIC [6] | MIC [7] | IC50 (T24 cells) | IC50 (HeLaS3 cells) | Increased life span (T/C) ([1]; 12.5 mg/kg, single i.p. 24 hours after i.p. implantation) | Increased life span (T/C) ([1]; 25 mg/kg, single i.p. 24 hours after i.p. implantation) | Increased life span (T/C) ([1]; 50 mg/kg, single i.p. 24 hours after i.p. implantation) | Solubility in solvents (Solubility in solvents; chloroform and ethyl acetate) | Solubility in solvents (Solubility in solvents; dimethylsulfoxide, pyridine, methanol, ethanol and acetone) | Solubility in solvents (Solubility in solvents; water and n-hexane)
1 | CO[C@@]12[C@H](COC(N)=O)C3=C(C(=O)C(C)=C(N)C3=O)N1C[C@@H]1N[C@@H]12 [Mitomycin C, mitomycin C, reference compound] | 1.57 | – | – | – | – | – | – | – | – | – | – | – | – | – | – | –
2 | O=C1c2cc(O)cc(O)c2C(=O)c2c1cc1cc(O)cc(O)c1c2O [UCT-1003] | – | 2.6 µg/mL (≈ 7.69 µM) | 2.6 µg/mL (≈ 7.69 µM) | 83 µg/mL (≈ 245 µM) | > 100 µg/mL | > 100 µg/mL | > 100 µg/mL | > 100 µg/mL | 0.13 µg/mL (≈ 0.384 µM) | 0.35 µg/mL (≈ 1.03 µM) | 1.21 | 1.30 | 1.30 | soluble | Readily soluble | sparingly soluble

— patent publication US5079376A, “Novel substance UCT-1003 and process for producing the same” (Kyowa Hakko Kogyo, Ltd., priority 1989, dated 1992)
